Patent EP4778511A1, “PHARMACEUTICAL COMPOSITION, DRUG-LOADED ROD CORE, IMPLANT, PREPARATION METHOD THEREFOR, AND USE THEREOF” (SHENYANG XINGHUA PHARMACEUTICAL TECHNOLOGY CO., LTD, priority 2023, dated 2025)
Like-named read-outs stand apart in the source and are kept apart here.

Legend:
[1] = Average particle size and PDI of paliperidone after wet grinding (nanonization); type: physicochemical
Description: Active pharmaceutical ingredient: stabilizer = 5:1. The ball mill speed was 400 r·min^-1, the grinding media was 0.2 mm of zirconia beads with a volume of 20 mL, and the grinding time was 50 min. The effects of stabilizer types Poloxamer 188 (P188), Tween 80, Poloxamer 407 (P407), SDS, HPMC on the average particle size and PDI (PDI is a dimensionless value reflecting the width of particle size distribution, ranging from 0 to 1, a smaller value indicates a more uniform and narrower particle size distribution) of the active pharmaceutical ingredient after grinding are investigated. Table 29 Effects of different stabilizers on average particle size and PDI
Active pharmaceutical ingredient: stabilizer = 5:1. The ball mill speed was 400 r·min^-1, Poloxamer 188 was used as the stabilizer, the grinding media was 20 mL, and the grinding time was 50 min. The effects of 0.1 mm, 0.2 mm, and 0.3 mm zirconia beads on the average particle size and PDI of the active pharmaceutical ingredient after grinding were investigated. Table 30 Effects of different types of grinding media on average particle size and PDI
Active pharmaceutical ingredient: stabilizer = 5:1. The ball mill speed was 400 r·min^-1, Poloxamer 188 was used as the stabilizer, the grinding media was 0.1 mm zirconia beads. The effects of grinding time for 15 min, 25 min, 35 min, 45 min, 50 min, 60 min on the average particle size and PDI of the active pharmaceutical ingredient after grinding were investigated. Table 31 Effects of different grinding time on average particle size and PDI

[2] = reagent table, cited from earlier work
[3] = stabilizer HPMC, 0.2 mm zirconia beads, grinding 50 min
[4] = stabilizer P188, 0.1 mm zirconia beads, grinding 15 min
[5] = stabilizer P188, 0.1 mm zirconia beads, grinding 25 min
[6] = stabilizer P188, 0.1 mm zirconia beads, grinding 35 min
[7] = stabilizer P188, 0.1 mm zirconia beads, grinding 45 min
[8] = stabilizer P188, 0.1 mm zirconia beads, grinding 50 min
[9] = stabilizer P188, 0.1 mm zirconia beads, grinding 60 min
[10] = stabilizer P188, 0.2 mm zirconia beads, grinding 50 min
[11] = stabilizer P188, 0.3 mm zirconia beads, grinding 50 min
[12] = stabilizer P407, 0.2 mm zirconia beads, grinding 50 min
[13] = stabilizer SDS, 0.2 mm zirconia beads, grinding 50 min
[14] = stabilizer Tween, 0.2 mm zirconia beads, grinding 50 min

Cc1nc2n(c(=O)c1CCN1CCC(c3noc4cc(F)ccc34)CC1)CCCC2O (stereo not shown) [Paliperidone]
Average particle size [1, 3]: 330 nm | PDI [1, 3]: 0.18 | Average particle size [1, 4]: 820 nm | PDI [1, 4]: 0.13 | Average particle size [1, 5]: 646 nm | PDI [1, 5]: 0.14 | Average particle size [1, 6]: 430 nm | PDI [1, 6]: 0.09 | Average particle size [1, 7]: 246 nm | PDI [1, 7]: 0.08 | Average particle size [1, 8]: 220 nm | PDI [1, 8]: 0.06 | Average particle size [1, 9]: 253 nm | PDI [1, 9]: 0.12 | Average particle size [1, 10]: 240 nm | PDI [1, 10]: 0.15 | Average particle size [1, 11]: 420 nm | PDI [1, 11]: 0.25 | Average particle size [1, 12]: 417 nm | PDI [1, 12]: 0.26 | Average particle size [1, 13]: 320 nm | PDI [1, 13]: 0.21 | Average particle size [1, 14]: 250 nm | PDI [1, 14]: 0.07 | solubility [2]: Paliperidone (purity 98%), molecular weight: 426.48, solubility: 30 µg/ml.

CC(=O)O[C@H]1C(=O)[C@@]2(C)[C@H]([C@H](OC(=O)c3ccccc3)[C@]3(O)C[C@H](OC(=O)[C@H](O)[C@@H](NC(=O)c4ccccc4)c4ccccc4)C(C)=C1C3(C)C)[C@]1(OC(C)=O)CO[C@@H]1C[C@@H]2O [Paclitaxel]
solubility ([2]; in water): Paclitaxel (purity 99%), molecular weight: 853.92, insoluble in water

N[C@@H](Cc1cc(I)c(Oc2cc(I)c(O)c(I)c2)c(I)c1)C(=O)O [levothyroxine sodium]
solubility [2]: levothyroxine sodium (purity 99%), molecular weight: 800.87, solubility: 150 µg/ml

C#C[C@]1(O)C=C[C@H]2[C@@H]3CCC4=CC(=O)CC[C@@H]4[C@H]3CC[C@@]21CC [Gestodene]
solubility ([2]; in water): Gestodene (purity 98%), molecular weight: 310.43, insoluble in water
